{"source": "paper PMC11601558", "about": "“SLC6A19 inhibition facilitates urinary neutral amino acid excretion and lowers plasma phenylalanine” (JCI Insight, 2024)", "test": "JN-170 plasma pharmacokinetics in Pah^enu2 mice, single oral dose", "type": "in vivo, mouse", "set-up": "JN-170 plasma level (Fig 3a) / JN-170 plasma concentration: unit not given here", "details": "for JN-170 plasma level (Fig 3a) / concentration at 8 h / concentration at 1 h / concentration at 3 h: individual Pah^enu2 mice; for JN-170 plasma concentration: Fig S3a, Pahenu2 mice, individual animals; for concentration at 8 h / concentration at 1 h / concentration at 3 h: male, BTBR-Pah<enu2>/J (Pah^enu2), mouse, plasma, oral, read-out: JN-170 plasma level (Fig 3a)", "procedure": "Male homozygous BTBR-Pah<enu2>/J (Pah^enu2) aged 10–13 weeks were purchased from Jackson Laboratory (no. 002232). Immediately before dosing, each animal’s bladder was manually emptied and a plasma sample was drawn. Animals were dosed by oral gavage with vehicle (10% DMSO, 20% 2-hydroxypropyl-β-cyclodextrin [Sigma-Aldrich]) followed by a 1-week washout prior to dosing with JN-170 at doses ranging from 50 to 250 mg/kg. Following dosing with vehicle or JN-170, animals were individually placed in metabolic cages to collect urine samples. After collection of each urine sample, cages were rinsed with ultra-pure water to recover residual analytes. Blood samples were collected predose as well as 1, 3, 8, 12, and 24 hours after dosing with vehicle or JN-170 into tubes with EDTA as a […], and plasma was separated by centrifuging samples at 2,200g for 5 minutes at 4°C. Throughout the study, mice had access to food and water ad libitum. Plasma and urine samples were stored at –80°C until processing.Ten-week-old male WT C57Bl/6J animals (Si Bei Fu Laboratory Animal Technology Co. Ltd.) were dosed either with vehicle or 50–250 mg/kg JN-170 by oral gavage and blood and urine samples were collected as described. All animals had unrestricted access to food and water during the study; C57Bl/6J were kept on rodent maintenance diet from Beijing Keao Xieli, Pah^enu2 mice were kept on Teklad diet no. T.2018.\nPlasma sample analyses were carried out by liquid chromatography tandem mass spectrometry (LC-MS/MS). Plasma samples were mixed 1:1 with carbamazepine or ^13C6-Phe as internal standards for JN-170 and Phe, respectively. Plasma proteins were precipitated by adding 4 volumes of acetonitrile (ACN) and 0.1% formic acid (FA) followed by centrifugation for 5 minutes at 2,100g. Supernatants were diluted 1:1 in ACN and 0.1% FA. For JN-170, a Waters HSS T3 reversed phase column was used for separation using a binary gradient of 0.1% FA in water (mobile phase A) to 0.1% in ACN (mobile phase B). At a flow rate of 0.8 mL/min, the mobile phase gradient increased from an initial 25% phase B to 95% phase B over 30 seconds. After, 1.5 minutes, the gradient was returned to 25% mobile phase B. For detection of Phe, an Acquity UPLC ethylene bridged hybrid (BEH) amide column was used, with a binary gradient of 10 mM ammonium acetate in 95:5:1 H2O:ACN:FA (mobile phase A) to 10 mM ammonium acetate in 95:5:1 ACN:H2O:FA (mobile phase B). At a flow rate of 0.5 mL/min, the mobile phase gradient changed from an initial 100% phase B to 50% phase B over 2.1 minutes. It was returned to 100% phase B after 4 minutes. Analytes were detected using a Sciex API-5500 in multiple reaction monitoring mode using an electrospray ionization source in the positive ion mode with the following ion transitions: m/z 435.2/84.1 (JN-170), 237.1/194.1 (carbamazepine), 166.1/120.1 (Phe), 172.2/126.2 for (^13C6-Phe). Analyte concentrations were calculated with a 1/×^2 linear regression over a concentration range of 1 or 2 to 5,000 ng/mL for JN-170 and 0.05–100 ng/mL for Phe.", "note": "Values joined by “and” are separate entries in the source; they are usually repeats but may differ in a detail not shown here. Equal values may be shown once. Read-outs that look alike come from different tables or passages of the source."}
{"smiles": "N#Cc1ccc(-c2noc([C@]3(C(F)(F)F)CCN(C(=O)NCCC4(N)CC4)C3)n2)cc1", "note": "[JN-170]", "values": [{"measurement": "coverage above the in vitro IC75", "setting": "50 mg/kg", "value": "approximately 3 hours"}, {"measurement": "JN-170 plasma level (Fig 3a)", "setting": "50 mg/kg oral, 24 h", "value": "8.45 and 26.4 and 9.59 and 19.9"}, {"measurement": "JN-170 plasma level (Fig 3a)", "setting": "250 mg/kg oral, 1 h", "value": "16600 (2×) and 17000 and 16300 and 17600"}, {"measurement": "JN-170 plasma level (Fig 3a)", "setting": "250 mg/kg oral, 24 h", "value": "125 and 63 and 72.6"}, {"measurement": "JN-170 plasma concentration", "setting": "time 1 h", "value": "10400 and 12200 and 13800 and 8750 and 11500 and 12500"}, {"measurement": "JN-170 plasma concentration", "setting": "time 3 h", "value": "8500 and 9610 and 10900 and 8710 and 9900 and 11900"}, {"measurement": "JN-170 plasma concentration", "setting": "time 8 h", "value": "11000 and 6710 and 8280 and 8610 and 8480 and 9150"}, {"measurement": "JN-170 plasma concentration", "setting": "time 12 h", "value": "7430 and 5630 and 5750 and 12700 and 9060 and 6600"}, {"measurement": "JN-170 plasma concentration", "setting": "time 24 h", "value": "33.1 and 16 and 26.9 and 82.7 and 103 and 19.9"}, {"measurement": "concentration at 8 h", "setting": "50 mg/kg, 50 mg/kg oral", "value": 456, "unit": "ng/mL"}, {"measurement": "concentration at 1 h", "setting": "100 mg/kg, 100 mg/kg oral, 1 h", "value": 5780, "unit": "ng/mL"}, {"measurement": "concentration at 3 h", "setting": "100 mg/kg, 100 mg/kg oral", "value": 4240, "unit": "ng/mL"}, {"measurement": "concentration at 8 h", "setting": "100 mg/kg, 100 mg/kg oral", "value": 2280, "unit": "ng/mL"}, {"measurement": "concentration at 1 h", "setting": "200 mg/kg, 200 mg/kg oral, 1 h", "value": 8750, "unit": "ng/mL"}, {"measurement": "concentration at 3 h", "setting": "200 mg/kg, 200 mg/kg oral", "value": 8710, "unit": "ng/mL"}, {"measurement": "concentration at 8 h", "setting": "200 mg/kg, 200 mg/kg oral", "value": 8610, "unit": "ng/mL"}, {"measurement": "concentration at 1 h", "setting": "250 mg/kg, 250 mg/kg oral, 1 h", "value": 18300, "unit": "ng/mL"}, {"measurement": "concentration at 3 h", "setting": "250 mg/kg, 250 mg/kg oral", "value": 14800, "unit": "ng/mL"}, {"measurement": "concentration at 8 h", "setting": "250 mg/kg, 250 mg/kg oral", "value": 11200, "unit": "ng/mL"}]}
